Bridge positions count the residues as written; N and C are the ends. Peptide text beside a SMILES is read from it.

In one assay the target is IGFBP-1. Put plainly: Peptide inhibition of phage IGF-1 binding to IGFBP-1. Set-up: species or system human. The note with it: synthetic peptide preincubated 45 minutes with IGF-1 displaying phage; plates coated with IGF binding protein; read-out: BP1 Comp. The method, then:
(§1) Peptide Inhibition of Phage IGF-1 Binding to IGF Binding Proteins
(§2) For inhibition of IGFBP-1 and IGFBP3, E. coli cells (XL1-Blue, Stratagene) freshly transformed with the phage vector pIGF-g3 displaying human IGF-1 as described in Dubaquie and Lowman, supra, was grown overnight in 5 ml of 2YT medium (Sambrook et al., Molecular Cloning. A Laboratory Handbook (Cold Spring Harbor Laboratory Press, Cold Spring Harbor, N.Y., 1989)). The IGF-1 displaying phage was titered against IGF bp1 and bp3 for a 500-1000× dilution for preincubation with serial dilutions the synthesized peptides and binding protein standards for 45 minutes. Immunosorbant plates were coated with IGF binding proteins and blocked with 0.5% TWEEN®-20 detergent and PBS and washed as above. The samples were added to the plates for 20 minutes, washed and detected as above. The experimental IC50 values are in Table 5.

The target in another assay is IGFBP3. Put plainly: Peptide inhibition of phage IGF-1 binding to IGFBP-3. Set-up: species or system human. The note with it: synthetic peptide preincubated 45 minutes with IGF-1 displaying phage; plates coated with IGF binding protein; read-out: BP3 Comp. The method, then: as §1, §2
Assay [1] relates to human insulin receptor (hIR). The assay is described as follows: Cell-based insulin KIRA assay (kinase receptor activation). Particulars: Chinese hamster ovary cells transfected with hIR; peptides incubated with 25 nm IGF-1 for 1 hr; 15 min stimulation. The method, then: Cell-Based Insulin KIRA Assay of IGF-1 Binding Peptide Activity
A kinase receptor activation assay (KIRA) (Sadick et al., J. Pharm. Biomed. Anal., 19, 883-891 (1999)) for measuring phosphorylation of human insulin receptor (hIR) was developed using Chinese hamster ovary cells transfected with the hIR. (TRY-1R 5.3) Cells were grown overnight in 96-well plates with medium (PS/20) at 37° C. Supernatants were decanted and stimulation media (PS/20 and 0.5% BSA) containing either peptide samples (peptides incubated with 25 nm IGF-1 for 1 hr), experimental controls (IGF Bp1 incubated with IGF-1 for 1 hr), and 25 nm rhIGF-1 standards were added. After fifteen minute stimulation at 37° C., stimulation solutions were removed and cells were lysed with a buffer containing 50 mM HEPES, 150 mM NaCl, 0.5% Triton-X-100™ octylphenyl ethylene oxide condensate, 1 mM AEBSF, aprotinin and 0.05 mM leupeptin, and 2 mM sodium orthovanadate. Lysates were frozen at −70° C. for ELISA. Immunosorbant plates were coated with 2 μg/ml insulin receptor Ab-2 (clone 83-7) in PBS at pH 7.0 overnight at 4° C. The plate was blocked and washed as above. Cell lysates containing transfected hIR were incubated on the capture ELISA plates for 2 hrs. After removing unbound receptor by washing, biotinylated anti-phosphotyrosine 4G10 (Upstate Biologicals Inc.) was added to detect activated receptor. After 2 hrs, the plates were developed with streptavidin conjugated to HRP and TMB substrate as above.

The subject of assay [2] is human type 1 IGF-1 receptor. The assay is described as follows: Cell-based IGF-1 KIRA assay. Particulars: MCF-7 cells; peptides preincubated 30 min with 2 nm IGF-1; 15-minute stimulation. The method, then:
Cell-Based IGF-1 KIRA Assay
A KIRA for measuring the activation of the human type 1 IGF-1 receptor was performed using human MCF-7 cells (as described above). Cells were grown overnight in 96-well plates with medium (50:50 F12/DMEM, Gibco). Supernatants were decanted, and stimulation media (50:50 F12/DMEM with 25 mM HEPES and 2.0% BSA) containing either controls (2 nM IGF-1 preincubated with IGF Bp1 or Bp3) or experimental samples (Peptides preincubated for 30 min. with 2 nm IGF-1) were added. After 15-minute stimulation the cells were lysed, and added to the polyclonal anti-IGF-R (3B7 Santa Cruz Biotech) coated overnight on immunosorbant plates. The detection ELISA was performed as above.

Assay [3] relates to IGF receptors on MCF-7 cells. The assay is described as follows: Displacement of 125I IGF-1 on MCF-7 cells. Set-up: species or system human. Particulars: peptides preincubated with 2 nm 125I IGF-1 for 40 minutes at 37° C; added to cells for 30 minutes; read-out: MCF-7 binding. The method, then: Displacement of IGF-1 on MCF-7 Cells
MCF7 (ATCC-HTB, Bethesda, Md.), a breast carcinoma cell line that expresses IGF receptors as well as insulin receptors (Grupe et al., J. Biol. Chem., 270, 22085-22088 (1995)) was used to detect inhibition of ^125I IGF-1 to receptors on cells by synthesized peptides. Cell were passaged weekly in media containing a 50/50 mix of high-glucose DMEM/Ham's F12, with 10% fetal bovine serum and 10 mM HEPES pH 7.2. Cells were plated and grown overnight maintained at 37° C. and 5% CO2. For IGF-1 iodination, 50 μg of IGF-1 was diluted into 200 μL of PBS and added to a tube coated with 100 μg of IODOGEN® 1,3,4,6-tetrachloro-3α-6β-diphenylglycouril) (Pierce Chemical Co.), incubated with 1 mCi of ^125I-NaI (10 μL) at room temperature for 10-15 minutes. Synthesized peptides and binding protein controls were preincubated with 2 nm ^125I IGF-1 for 40 minutes at 37° C. The samples were added to cells for 30 minutes. The cells were washed with media and lysed with 1N NaOH.
For orientation: Loss of bound radioactivity is the signal in a displacement assay; it reports binding, not function.

`CSCC[C@H](NC(=O)[C@@H]1CSSC[C@H](NC(=O)[C@H](CC(=O)O)NC(=O)[C@@H](N)CCSC)C(=O)N[C@@H](CC(C)C)C(=O)N[C@@H](C)C(=O)N[C@@H](CO)C(=O)N[C@@H](C(C)C)C(=O)N[C@@H](CCC(=O)O)C(=O)N[C@@H](C)C(=O)N[C@@H](CC(C)C)C(=O)N[C@@H](CCCCN)C(=O)N[C@@H](Cc2c[nH]c3ccccc23)C(=O)N1)C(=O)N[C@@H](Cc1ccc(O)cc1)C(=O)NCC(=O)O` [Peptide F1-2, MDCLASVEALKWCMYG] (H-MDCLASVEALKWCMYG-OH; disulfide 3-13 (inferred); N-terminus and C-terminus assumed): the IC50 at IGFBP-1 came out at 15.5 µM; at IGFBP3, 9.2 µM; in assay [1] it was 32.6 µM; in assay [2], 20 µM; in assay [3], 15.3 µM.

Take `CSCC[C@H](NC(=O)[C@@H]1CSSC[C@H](NC(=O)[C@H](CC(N)=O)NC(=O)[C@@H](N)CCCNC(=N)N)C(=O)N[C@@H](Cc2ccccc2)C(=O)N[C@@H](CCC(=O)O)C(=O)N[C@@H](CO)C(=O)N[C@@H](C(C)C)C(=O)N[C@@H](C)C(=O)N[C@@H](C)C(=O)N[C@@H](CC(C)C)C(=O)N[C@@H](CCCNC(=N)N)C(=O)N[C@@H](CCCNC(=N)N)C(=O)N1)C(=O)N[C@@H](Cc1ccc(O)cc1)C(=O)NCC(=O)O` [Peptide F1-1, RNCFESVAALRRCMYG] (H-RNCFESVAALRRCMYG-OH; disulfide 3-13): the IC50 was 1.4 µM on IGFBP-1; 2.93 µM on IGFBP3; 5.48 µM in assay [1]; 84.9 µM in assay [2]; 5.12 µM in assay [3].

`CSCC[C@H](NC(=O)[C@@H]1CSSC[C@H](NC(=O)[C@H](CCC(=O)O)NC(=O)[C@@H](N)Cc2ccccc2)C(=O)N[C@@H](CC(C)C)C(=O)N[C@@H]([C@@H](C)O)C(=O)N[C@@H](CO)C(=O)N[C@@H](C(C)C)C(=O)N[C@@H](CCC(=O)O)C(=O)N[C@@H](C)C(=O)N[C@@H](CC(C)C)C(=O)N[C@@H](CCCNC(=N)N)C(=O)NCC(=O)N1)C(=O)N[C@@H](Cc1ccc(O)cc1)C(=O)NCC(N)=O` [Peptide F1-3, FECLTSVEALRGCMYG] (H-FECLTSVEALRGCMYG-NH2; disulfide 3-13; N-terminus and C-terminus assumed): the IC50 at IGFBP-1 came to 11.7 µM; on IGFBP3, 12.8 µM; in assay [1], 66.1 µM; in assay [2], 102 µM; in assay [3] it was 45.7 µM.
